US20050142068A1, “Retinal toxicity screening methods” (Pfizer Inc, priority 2003, published 2005)

Experiments:
retina = conditions: literature reports; cited from earlier work
RPE-J cells = test: Assay to identify retinal toxic agents: integrin marker fluorescence in RPE-J cells, confocal microscopy; assay type: cell-based, rat; conditions: 50 nM integrin marker, one hour
Source text: For each figure, the photomicrograph on the left is made using two excitation wavelengths—488 nm (argon laser) for the integrin marker peptide and 633 nm (HeNe laser) for TOTO®-3 iodide. The integrin peptide marker fluoresces at 520 nm and TOTO®-3 iodide fluoresces at 660 nm. The photomicrograph on the right is of the identical cells as those in the left micrograph, but under 488 nm excitation alone.
RPE-J cells were plate cultured in high glucose DMEM medium (cat. no. 10313021, Invitrogen, Carlsbad, Calif.) containing 4% fetal calf serum (cat. no. 12319018, Invitrogen) at 33° C. under 5-10% CO2 atmosphere. When confluence of about 80% was reached (after about seven days), the medium was removed from the culture dish and the cells on the bottoms were washed with 0.25% trypsin-EDTA (cat. no. 25200056, Invitrogen) for three and one-half to five minutes. Following trypsinization the cells were centrifuged at 500-600 RPM for five minutes and resuspended in high glucose DMEM medium containing 4% fetal calf serum. The cells were plated in a four-chamber slide (1.7 cm^2 per chamber) at 50,000 cells per chamber. When confluence of about 80% was reached, the cells were gently wash the cells in warm phosphate buffered saline. […] Fluorescence was detected at 520 nm for the integrin marker peptide and at 660 nm for TOTO®-3 iodide.

CN(C)CCCN1c2ccccc2Sc2ccc(Cl)cc21 [chlorpromazine]
damage to the retina reported as a result of exposure (retina): retinopathy

CCN(CC)CCCC(C)Nc1ccnc2cc(Cl)ccc12 (stereo not shown) [cloroquine]
damage to the retina reported as a result of exposure (retina): retinopathy

CC/C(=C(\c1ccccc1)c1ccc(OCCN(C)C)cc1)c1ccccc1 [tamoxifen]
visibility of integrin peptide marker fluorescence (RPE-J cells; 1 μM tamoxifen, 488 nm excitation (FIG. 3)): clearly visible
visibility of integrin peptide marker fluorescence (RPE-J cells; 25 μM tamoxifen, 488 nm excitation (FIG. 4)): highly visible
